Test results as given in ChEMBL document CHEMBL6078668, “Synthesis and biological evaluation of lappaconitine analogues as potential anti-neuroinflammatory agents by side chain modification and scaffold hopping strategy” (Bioorg Med Chem, 2025).

What was measured:
[1] = Cytotoxicity against C57BL/6 mouse BV-2 cells assessed as survival rate at 30 uM incubated for 24 hrs by MTT assay relative to control; type: toxicity, cell-based; details: read-out: Survival
[2] = tested on: BV-2; assay: Anti-neuroinflammatory activity against LPS-stimulated C57BL/6 mouse BV-2 cells assessed as inhibition of NO release at 30 uM preincubated with compound for 4 hrs followed by LPS addition and measured after 24 hrs by Griess reagent based assay relative to control; type: functional; details: C57BL/6, BV-2, time 28 hrs

Compound	viability at 24 h, 30 µM [1]	inhibition at 30 µM [2]
CCN1C[C@]2(OC(=O)c3ccccc3NC(=O)c3ccccc3Cl)CC[C@H](OC)[C@]34C1[C@@H](C[C@H]23)[C@@]1(O)C[C@H](OC)[C@H]2C[C@@H]4[C@]1(O)[C@H]2OC	104%	12.8%
CCN1C[C@]2(OC(=O)c3ccccc3NC(=O)S(=O)(=O)c3ccc(C)c(Cl)c3)CC[C@H](OC)[C@]34C1[C@@H](C[C@H]23)[C@@]1(O)C[C@H](OC)[C@H]2C[C@@H]4[C@]1(O)[C@H]2OC	94.8%	25.2%
CCN1C[C@]2(OC(=O)c3ccccc3NC(=O)S(=O)(=O)c3ccccc3C(F)(F)F)CC[C@H](OC)[C@]34C1[C@@H](C[C@H]23)[C@@]1(O)C[C@H](OC)[C@H]2C[C@@H]4[C@]1(O)[C@H]2OC	107%	13.7%
O=C(O)c1ccccc1NS(=O)(=O)c1ccc(Br)s1	96.5%	18.4%
O=C(O)c1ccccc1NS(=O)(=O)c1cccc(F)c1	100%	10.8%
CCN1C[C@]2(OC(=O)c3ccccc3NC(=O)S(=O)(=O)c3ccccc3OC)CC[C@H](OC)[C@]34C1[C@@H](C[C@H]23)[C@@]1(O)C[C@H](OC)[C@H]2C[C@@H]4[C@]1(O)[C@H]2OC	103%	15.2%
CCN1C[C@]2(OC(=O)c3ccccc3NC(=O)S(=O)(=O)c3cccc(Cl)c3)CC[C@H](OC)[C@]34C1[C@@H](C[C@H]23)[C@@]1(O)C[C@H](OC)[C@H]2C[C@@H]4[C@]1(O)[C@H]2OC	95.4%	13.9%
CCN1C[C@]2(OC(=O)c3ccccc3NC(=O)CN(C)C)CC[C@H](OC)[C@]34C1[C@@H](C[C@H]23)[C@@]1(O)C[C@H](OC)[C@H]2C[C@@H]4[C@]1(O)[C@H]2OC	94.5%	20.2%
CCc1ccc(C(=O)Nc2ccccc2C(=O)OC[C@@]23CC[C@H](OC)[C@]45C([C@@H](C[C@H]24)[C@@]2(O)C[C@H](OC)[C@H]4C[C@@H]5[C@]2(O)[C@H]4O)N(CC)C3)cc1	104%	15.5%
CCN1C[C@]2(OC(=O)c3ccccc3NC(=O)S(=O)(=O)c3ccc(C)cc3)CC[C@H](OC)[C@]34C1[C@@H](C[C@H]23)[C@@]1(O)C[C@H](OC)[C@H]2C[C@@H]4[C@]1(O)[C@H]2OC	102%	31.7%
CCN1C[C@]2(OC(=O)c3ccccc3NC(=O)c3ccc(S(C)(=O)=O)cc3)CC[C@H](OC)[C@]34C1[C@@H](C[C@H]23)[C@@]1(O)C[C@H](OC)[C@H]2C[C@@H]4[C@]1(O)[C@H]2OC	103%	20%
CCN1C[C@]2(OC(=O)c3ccccc3NC(=O)S(=O)(=O)c3csc4ccccc34)CC[C@H](OC)[C@]34C1[C@@H](C[C@H]23)[C@@]1(O)C[C@H](OC)[C@H]2C[C@@H]4[C@]1(O)[C@H]2OC	100%	30.7%
CCN1C[C@]2(OC(=O)c3ccccc3NC(=O)S(=O)(=O)c3ccc(C#N)cc3)CC[C@H](OC)[C@]34C1[C@@H](C[C@H]23)[C@@]1(O)C[C@H](OC)[C@H]2C[C@@H]4[C@]1(O)[C@H]2OC	103%	38.8%
CCN1C[C@]2(OC(=O)c3ccccc3NC(=O)c3ccc(OC)cc3)CC[C@H](OC)[C@]34C1[C@@H](C[C@H]23)[C@@]1(O)C[C@H](OC)[C@H]2C[C@@H]4[C@]1(O)[C@H]2OC	100%	45.2%
CCN1C[C@]2(OC(=O)c3ccccc3NC(=O)S(=O)(=O)c3ccc(OC)c(F)c3)CC[C@H](OC)[C@]34C1[C@@H](C[C@H]23)[C@@]1(O)C[C@H](OC)[C@H]2C[C@@H]4[C@]1(O)[C@H]2OC	103%	11.1%
CCN1C[C@]2(OC(=O)c3ccccc3NC(=O)S(=O)(=O)c3ccccc3)CC[C@H](OC)[C@]34C1[C@@H](C[C@H]23)[C@@]1(O)C[C@H](OC)[C@H]2C[C@@H]4[C@]1(O)[C@H]2OC	97.2%	31.8%
CCN1C[C@]2(OC(=O)c3ccccc3NC(=O)c3ccccc3F)CC[C@H](OC)[C@]34C1[C@@H](C[C@H]23)[C@@]1(O)C[C@H](OC)[C@H]2C[C@@H]4[C@]1(O)[C@H]2OC	105%	17.3%
COC(=O)c1ccccc1NC(=O)c1ccc(Cl)s1	93.5%	48.6%
CCN1C[C@]2(OC(=O)c3ccccc3NC(=O)S(=O)(=O)c3ccc(C4CCCCC4)cc3)CC[C@H](OC)[C@]34C1[C@@H](C[C@H]23)[C@@]1(O)C[C@H](OC)[C@H]2C[C@@H]4[C@]1(O)[C@H]2OC	93.7%	38.5%
